Patent US6750256B1, “Use of aromatic aldehydes as insecticides” (Proguard, Inc., priority 1994, dated 2004)

Columns and labels:
Type in all cases: in vivo
[1] = system: melon aphid (Aphis gossypii Glover); test: Melon aphid plant foliar bioassay on flowering chrysanthemums; conditions: each concentration (1,000, 3,000, 10,000 ppm); after 36 hours; pre-count mean of about 60
Protocol: Treatment of melon aphid (Aphis gossypii Glover) is conducted as follows. Plants were grown in […] pots in planting soil in greenhouse. Chrysantemums (c. morifolum) were used for melon aphid plant foliar bioassays.
Flowering plants were infested and pre-count population size for each plant were taken and number of mean of aphids nymphs per leaf calculated. The plants were sprayed to runoff (about 5 ml) with an aqueous formulation containing 1,000 ppm, 3,000 ppm, and 10,000 ppm concentration of cinnamic aldehyde, and a negative control containing only H2O. After 36 hours, the number of insects on the leaves sprayed with a given test formulation was determined and compared with that of insects on leaves sprayed with negative control only. Mean aphid nymphs per leaf were determined to be less than 10 for each cinnamic aldehyde concentration compared to a pre-count mean of about 60.

[2] = system: thrips insects (Frankliniella occidentalis); test: Residual activity on treated filter paper against thrips; conditions: rehydrated 24 and 72 hours after spraying, thrips exposed one hour
Protocol: In the first experiment, two ml of two concentrations of CNMA (0.3 and 1%) were sprayed on filter paper (Whatman). As a negative control, two ml of water was also sprayed on filter paper. Twenty-four hours later, two ml of water were sprayed on treatment and control filter paper, which were then dried for 30 min. Approximately 30 thrips insects (Frankliniella occidentalis) were introduced onto the treated filter papers and the number of F. occidentalis were observed after one hour. Mean mortality was calculated for each treatment. After 72 hours, the treated filter papers were flipped over and only the negative control filter paper and the filter paper treated with 1% CNMA were sprayed with 2 ml of water and allowed to dry for 30 minutes. Approximately 30 thrips were introduced onto the two treated filter papers and after one hour the number of dead F. occidentalis were observed and the mean mortality calculated for each treatment. A similar assay was conducted using AHCNMA. Mean mortality was higher for rehydrated filter papers compared to non-rehydrated filter papers over time.

[3] = system: hard ticks (Ixodea pacificus and Dermacentor albipietus); test: Tick treated filter paper test, hard ticks
Protocol: In a double blind experiment, filter papers (90 mm) (Whatman) were treated to uniform saturation with 1 ml of test formula and placed in 90 mm petri dishes. Ten arachnids were placed in each petri dish and the dish closed. Observations of mortality were made at 30 minutes, 1 hour, 3 hours, 6 hours, 12 hours and 24 hours. The cinnamic aldehyde concentrations varied from 10-50,000 ppm in a vehicle of 2% Tween 80, 6% NaHCO3. The effect of vehicle alone or H2O (HPLC) was also tested. In separate experiments, the effects of the components of the vehicle were evaluated in comparison to water.

[4] = system: adult carpenter ants (Camponotus pennsylvanicus); test: Carpenter ant spray test
Protocol: The effect of cinnamic aldehyde on adult carpenter ants (Camponotus pennsylvanicus) was evaluated as follows. Twenty adult ants were placed in a 20 liter stainless steel pail with lid. The test formulations were prepared and used within one hour and were shaken immediately before spraying the insects. 8 ml of test solution was sprayed with a fine spray (Gilmour hand sprayer). […] Cinnamic aldehyde (2%, 20,000 ppm) in 2% Tween 80 and 6% NaHCO3 in water gave 100% mortality at all time points. Vehicle in 2% Tween 80 and 6% NaHCO3. Raid (active ingredients: permethrin, pyrethrins and PBO) was used as a positive control and gave 90% mortality at 0.5 hr with 100% mortality at all other time points.

[5] = system: adult Aedes aegypti mosquitos; test: Mosquito adulticide treated filter paper test
Protocol: The toxicity of the formulation for mosquitos was determined using adult Aedes aegypti mosquitos from the University of California Mosquito Control Research Laboratory at the Kearney Agricultural Center. The experiments were performed as double blind studies.
One ml test formulation was pipetted onto 11 cm #2 Whatman filter paper circle cut to fit shell vials (84 mm×23 mm) which was air dried at room temperature for two hours and placed in a shell vial (84 mm×23 mm). Twenty unblooded adult female mosquitos approximately four days of age were aspirated using gentle suction into each shell vial. The open end of the vial was covered with 1 mm nylon mesh and filter paper cut to fit for complete coverage from an 11 cm #2 Whatman filter paper circle. The vials were placed in a polyethylene mosquito bag (46 cm×20 cm) with a wet paper towel inside and loosely sealed. The bag was gently inflated by gently blowing in air and placed in an incubator at 22° C. for 24 hours with a day light cycle (14 hrs light; 10 hrs dark). Untreated paper and paper treated with H2O were used as controls. Mortality was determined by counting the number of dead mosquitos.
The efficacy of various concentrations of cinnamic aldehyde in a formulation of 2% Tween 80, 6% NaHCO3 was tested, using concentrations of cinnamic aldehyde ranging from 25,000 ppm to 10 ppm with and without the addition of saponin, 1:60 dilution of a 10° Brix solution. At concentrations down to 100 ppm added to the filter paper, 100% of the mosquitos were killed. At 10 ppm added to the filer paper, 78% of the mosquitos were killed in the absence of saponin, but only 5% with saponin 14% of mosquitos were killed with the addition of 2% Tween 80 and 6% NaHCO3 alone to the filter paper and 50% with the further addition of a 1:60 dilution 10° Brix saponin. The percent mortality is the average of three replications, with corrections for control mortality. Malathion was used as a positive control.

[6] = 24 h, read-out: Percent Mortality CNMA (PGXL)

Question: With O=C/C=C/c1ccccc1 [CNMA, cinnamic aldehyde] as the compound, how does the “Mean aphid nymphs per leaf” value [1] read?
Answer: less than 10

Question: What about the “residual activity in words” value [2] of the same compound?
Answer: residual activity

Question: What about the mortality ([3]; 2500 ppm in vehicle (2% Tween 80, 6% NaHCO3), in 24 hours, preliminary experiments) of the same compound?
Answer: 100%

Question: What about the effect on mortality ([3]; concentrations below 2500 in vehicle) of the same compound?
Answer: no effect on mortality

Question: What about the mortality at 20000 ppm [4] of the same compound?
Answer: 100%

Question: What about the mosquitos killed ([5]; 10 ppm added to the filter paper, in the absence of saponin) of the same compound?
Answer: 78%

Question: And the mosquitos killed ([5]; 10 ppm added to the filter paper, with saponin)?
Answer: 5%

Question: And the mortality at 10 ppm [5, 6]?
Answer: 78%

Question: What about the mortality at 100 ppm [5, 6] of the same compound?
Answer: 100%

Question: What about the mortality at 2500 ppm [5, 6] of the same compound?
Answer: 95%

Question: And the mortality at 5000 ppm [5, 6]?
Answer: 100%

Question: What about the mortality at 12500 ppm [5, 6] of the same compound?
Answer: 100%

Question: And the mortality at 25000 ppm [5, 6]?
Answer: 100%

Question: And the mosquitos killed ([5]; concentrations down to 100 ppm added to the filter paper)?
Answer: 100%
